# From patent publication US20050282755A1, “Compositions having antimicrobial activity and uses thereof” (priority 2004, published 2005)
# Non-standard residues stand in square brackets, D forms with d. Residues, ends and D or L forms follow the SMILES beside them. *: point of attachment. 1Nal = N[C@@H](Cc1cccc2ccccc12)C(=O)O; d(hArg) = N=C(N)NCCCC[C@@H](N)C(=O)O; Stearoyl = CCCCCCCCCCCCCCCCCC(=O)*; Lauroyl = CCCCCCCCCCCC(=O)*
# How the values were obtained:
# Assay type in all cases: cell-based
# [1] = tested on: Staphylococcus aureus ATCC 29213; test: MIC, NCCLS M7-A6 broth microdilution, cation-adjusted Mueller Hinton broth (Table 9, no superscript); details: ATCC 29213
# Description: (§1) Cation-adjusted Mueller Hinton broth was used in the broth microdilution method. In brief, a log-phase bacterial suspension was used to inoculate wells of a 96-well plate so that the final inoculum for each well contained 5×10^5 to 1×10^6 CFU/milliliter. […] Plates were incubated overnight at 37° C. The lowest concentration of peptide that contained no visible growth as evidenced by a lack of turbidity when compared to the control (no peptide) was determined as the MIC. Unless otherwise noted, MIC values listed in Table 9 utilized this method of MIC determination.
# [2] = tested on: Staphylococcus epidermidis ATCC 12228; test: MIC, NCCLS M7-A6 broth microdilution (Table 9, no superscript); details: ATCC 12228
# Description: as §1
# Salmonella dublin (Lane) = test: as above
# Description: as §1
# [3] = tested on: Pseudomonas aeruginosa ATCC 27853; test: as above; details: ATCC 27853
# Description: as §1
# [4] = tested on: Escherichia coli ATCC 25922; test: as above; details: ATCC 25922
# Description: as §1
structure (smiles),measurement,setting,value
CCCCCCCCCCCC(=O)N[C@H](C(=O)N[C@@H](CCCNC(=N)N)C(=O)N[C@H](C(=O)N[C@@H](CO)C(=O)N[C@@H](CCCNC(=N)N)C(=O)N[C@H](C(=O)NCC(=O)N[C@@H](CCCNC(=N)N)C(=O)N[C@@H](CO)C(=O)N[C@@H](CCCNC(=N)N)C(=O)N[C@@H](Cc1c[nH]c2ccccc12)C(=O)N[C@@H](CCCNC(=N)N)C(=O)N[C@@H](CC(=O)O)C(=O)N[C@@H](Cc1c[nH]c2ccccc12)C(=O)N[C@@H](CO)C(=O)N[C@@H](CCCNC(=N)N)C(=O)N[C@@H](CC(N)=O)C(=O)N[C@@H](Cc1ccccc1)C(=O)N[C@@H](CCSC)C(=O)N[C@@H](CCCNC(=N)N)C(=O)N[C@@H](CC(C)C)C(=O)N[C@@H](CC(C)C)C(N)=O)[C@@H](C)O)C(C)C)[C@@H](C)O [Peptide 68] (Lauroyl-TRVSRTGRSRWRDWSRNFMRLL-NH2),MIC S. aureus,[1],32 µg/mL
same,MIC S. epidermidis,[2],8 µg/mL
same,MIC S. dublin,Salmonella dublin (Lane),16 µg/mL
same,MIC P. aeruginosa,[3],>64 µg/mL
same,MIC E. coli,[4],64 µg/mL
"CCCCCCCCCCCCCCCCCC(=O)N[C@@H](C(=O)N[C@H](CCCNC(=N)N)C(=O)N[C@@H](C(=O)N[C@H](CO)C(=O)N[C@H](CCCNC(=N)N)C(=O)N[C@@H](C(=O)NCC(=O)N[C@H](CCCNC(=N)N)C(=O)N[C@H](CO)C(=O)N[C@H](CCCNC(=N)N)C(=O)N[C@H](Cc1c[nH]c2ccccc12)C(=O)N[C@H](CCCNC(=N)N)C(=O)N[C@H](CC(=O)O)C(=O)N[C@H](Cc1c[nH]c2ccccc12)C(=O)N[C@H](CO)C(=O)N[C@H](CCCNC(=N)N)C(=O)N[C@H](CC(N)=O)C(=O)N[C@H](Cc1ccccc1)C(=O)N[C@H](CCSC)C(=O)N[C@H](CCCNC(=N)N)C(=O)N[C@H](C)C(=O)N[C@H](C)C(=O)N[C@@H](CCCCN)C(N)=O)[C@H](C)O)C(C)C)[C@H](C)O [Peptide 81, Stearyl-trvsrtgrsrwrdwsrnfmraaK-NH2] (Stearoyl-[dT][dR][dV][dS][dR][dT]G[dR][dS][dR][dW][dR][dD][dW][dS][dR][dN][dF][dM][dR][dA][dA]K-NH2)",MIC S. aureus,[1],64 µg/mL
same,MIC S. epidermidis,[2],64 µg/mL
same,MIC S. dublin,Salmonella dublin (Lane),32 µg/mL
same,MIC P. aeruginosa,[3],>64 µg/mL
same,MIC E. coli,[4],64 µg/mL
"CCCCCCCCCCCCCCCCCC(=O)N[C@@H](C(=O)N[C@H](CCCNC(=N)N)C(=O)N[C@@H](C(=O)N[C@H](CO)C(=O)N[C@H](CCCNC(=N)N)C(=O)N[C@@H](C(=O)NCC(=O)N[C@H](CCCNC(=N)N)C(=O)N[C@H](CO)C(=O)N[C@H](CCCNC(=N)N)C(=O)N[C@H](Cc1c[nH]c2ccccc12)C(=O)N[C@H](CCCNC(=N)N)C(=O)N[C@H](CC(=O)O)C(=O)N[C@H](Cc1c[nH]c2ccccc12)C(=O)N[C@H](CO)C(=O)N[C@H](CCCNC(=N)N)C(=O)N[C@H](CC(N)=O)C(=O)N[C@H](Cc1ccccc1)C(=O)N[C@H](CCSC)C(=O)N[C@H](CCCNC(=N)N)C(=O)N[C@H](C)C(=O)N[C@H](C)C(=O)N[C@@H](CCCCNC(C)=O)C(N)=O)[C@H](C)O)C(C)C)[C@H](C)O [Peptide 86, Stearyl-trvsrtgrsrwrdwsrnfmraaK(Ac)-NH2] (Stearoyl-[dT][dR][dV][dS][dR][dT]G[dR][dS][dR][dW][dR][dD][dW][dS][dR][dN][dF][dM][dR][dA][dA]K(Ac)-NH2)",MIC S. epidermidis,[2],32 µg/mL
same,MIC P. aeruginosa,[3],>64 µg/mL
same,MIC E. coli,[4],>64 µg/mL
"CSCC[C@H](NC(=O)[C@H](Cc1ccccc1)NC(=O)[C@H](CC(N)=O)NC(=O)[C@H](CCCNC(=N)N)NC(=O)[C@H](C)NC(=O)[C@H](Cc1c[nH]c2ccccc12)NC(=O)[C@H](CC(=O)O)NC(=O)[C@H](CCCNC(=N)N)NC(=O)[C@H](Cc1c[nH]c2ccccc12)NC(=O)[C@H](CCCNC(=N)N)NC(=O)[C@H](CO)NC(=O)[C@H](CCCNC(=N)N)NC(C)=O)C(=O)N[C@@H](CCCNC(=N)N)C(N)=O [Peptide 94, Ac-RSRWRDWARNFMR-NH2] (Ac-RSRWRDWARNFMR-NH2)",MIC S. aureus,[1],>64 µg/mL
same,MIC S. epidermidis,[2],16 µg/mL
same,MIC S. dublin,Salmonella dublin (Lane),>64 µg/mL
same,MIC P. aeruginosa,[3],>64 µg/mL
same,MIC E. coli,[4],>64 µg/mL
"CCCCCCCCCCCC(=O)N[C@@H](CCCNC(=N)N)C(=O)N[C@@H](CO)C(=O)N[C@@H](CCCNC(=N)N)C(=O)N[C@@H](Cc1c[nH]c2ccccc12)C(=O)N[C@@H](CCCNC(=N)N)C(=O)N[C@@H](CC(=O)O)C(=O)N[C@H](C(=O)N[C@@H](Cc1cccc2ccccc12)C(=O)N[C@@H](CCCNC(=N)N)C(=O)N[C@@H](CC(N)=O)C(=O)N[C@@H](Cc1ccccc1)C(=O)N[C@@H](CCSC)C(=O)N[C@@H](CCCNC(=N)N)C(N)=O)C(C)C [Peptide 151, Lauryl-RSRWRDVZRNFMR-NH2 Z = 1-naphthylalanine] (Lauroyl-RSRWRDV[1Nal]RNFMR-NH2)",MIC S. aureus,[1],32 µg/mL
same,MIC S. epidermidis,[2],4 µg/mL
same,MIC S. dublin,Salmonella dublin (Lane),8 µg/mL
same,MIC P. aeruginosa,[3],>64 µg/mL
same,MIC E. coli,[4],64 µg/mL
"CCCCCCCCCCCC(=O)N[C@@H](CCCNC(=N)N)C(=O)N[C@@H](CO)C(=O)N[C@@H](CCCNC(=N)N)C(=O)N[C@@H](Cc1cccc2ccccc12)C(=O)N[C@@H](CCCNC(=N)N)C(=O)N[C@@H](CC(=O)O)C(=O)N[C@@H](Cc1cccc2ccccc12)C(=O)N[C@@H](C)C(=O)N[C@@H](CCCNC(=N)N)C(=O)N[C@@H](CC(N)=O)C(=O)N[C@@H](Cc1ccccc1)C(=O)N[C@@H](CCSC)C(=O)N[C@@H](CCCNC(=N)N)C(N)=O [Peptide 153, Lauryl-RSRZRDZARNFMR-NH2 Z = 1-naphthylalanine] (Lauroyl-RSR[1Nal]RD[1Nal]ARNFMR-NH2)",MIC S. aureus,[1],8 µg/mL
same,MIC S. epidermidis,[2],8 µg/mL
same,MIC S. dublin,Salmonella dublin (Lane),64 µg/mL
same,MIC P. aeruginosa,[3],64 µg/mL
same,MIC E. coli,[4],32 µg/mL
"CCCCCCCCCCCC(=O)N[C@@H](CCCNC(=N)N)C(=O)N[C@@H](CO)C(=O)N[C@@H](CCCNC(=N)N)C(=O)N[C@@H](Cc1cccc2ccccc12)C(=O)N[C@@H](CCCNC(=N)N)C(=O)N[C@@H](CC(=O)O)C(=O)N[C@H](C(=O)N[C@@H](C)C(=O)N[C@@H](CCCNC(=N)N)C(=O)N[C@@H](CC(N)=O)C(=O)N[C@@H](Cc1cccc2ccccc12)C(=O)N[C@@H](CCSC)C(=O)N[C@@H](CCCNC(=N)N)C(N)=O)C(C)C [Peptide 154, Lauryl-RSRZRDVARNZMR-NH2 Z = 1-naphthylalanine] (Lauroyl-RSR[1Nal]RDVARN[1Nal]MR-NH2)",MIC S. aureus,[1],4 µg/mL
same,MIC S. epidermidis,[2],8 µg/mL
same,MIC S. dublin,Salmonella dublin (Lane),8 µg/mL
same,MIC P. aeruginosa,[3],>64 µg/mL
same,MIC E. coli,[4],64 µg/mL
"CCCCCCCCCCCC(=O)N[C@@H](CCCNC(=N)N)C(=O)N[C@@H](CO)C(=O)N[C@@H](CCCNC(=N)N)C(=O)N[C@@H](Cc1cccc2ccccc12)C(=O)N[C@@H](CCCNC(=N)N)C(=O)N[C@@H](CC(=O)O)C(=O)N[C@@H](Cc1cccc2ccccc12)C(=O)N[C@@H](C)C(=O)N[C@@H](CCCNC(=N)N)C(=O)N[C@@H](CC(N)=O)C(=O)N[C@@H](Cc1cccc2ccccc12)C(=O)N[C@@H](CCSC)C(=O)N[C@@H](CCCNC(=N)N)C(N)=O [Peptide 155, Lauryl-RSRZRDZARNZMR-NH2 Z = 1-naphthylalanine] (Lauroyl-RSR[1Nal]RD[1Nal]ARN[1Nal]MR-NH2)",MIC S. aureus,[1],64 µg/mL
same,MIC S. epidermidis,[2],16 µg/mL
same,MIC S. dublin,Salmonella dublin (Lane),16 µg/mL
same,MIC P. aeruginosa,[3],>64 µg/mL
same,MIC E. coli,[4],>64 µg/mL
"CCCCCCCCCCCC(=O)N[C@@H](CCCNC(=N)N)C(=O)N[C@@H](CO)C(=O)N[C@@H](CCCNC(=N)N)C(=O)N[C@@H](Cc1c[nH]c2ccccc12)C(=O)N[C@@H](CCCNC(=N)N)C(=O)N[C@@H](CC(=O)O)C(=O)N[C@@H](Cc1cccc2ccccc12)C(=O)N[C@@H](C)C(=O)N[C@@H](CCCNC(=N)N)C(=O)N[C@@H](CC(N)=O)C(=O)N[C@@H](Cc1cccc2ccccc12)C(=O)N[C@@H](CCSC)C(=O)N[C@@H](CCCNC(=N)N)C(N)=O [Peptide 156, Lauryl-RSRWRDZARNZMR-NH2 Z = 1-naphthylalanine] (Lauroyl-RSRWRD[1Nal]ARN[1Nal]MR-NH2)",MIC S. aureus,[1],32 µg/mL
same,MIC S. epidermidis,[2],16 µg/mL
same,MIC S. dublin,Salmonella dublin (Lane),8 µg/mL
same,MIC P. aeruginosa,[3],>64 µg/mL
same,MIC E. coli,[4],64 µg/mL
"CCCCCCCCCCCC(=O)N[C@H](CCCCNC(=N)N)C(=O)N[C@H](CO)C(=O)N[C@H](CCCCNC(=N)N)C(=O)N[C@H](Cc1c[nH]c2ccccc12)C(=O)N[C@H](CCCCNC(=N)N)C(=O)N[C@H](CC(=O)O)C(=O)N[C@@H](C(=O)N[C@H](C)C(=O)N[C@H](CCCCNC(=N)N)C(=O)N[C@H](CC(N)=O)C(=O)N[C@H](Cc1ccccc1)C(=O)N[C@H](CCSC)C(=O)N[C@H](CCCCNC(=N)N)C(N)=O)C(C)C [Peptide 159, Lauryl-xsxwxdvaxnfmx-NH2 x = D-homoarginine] (Lauroyl-[d(hArg)][dS][d(hArg)][dW][d(hArg)][dD][dV][dA][d(hArg)][dN][dF][dM][d(hArg)]-NH2)",MIC S. aureus,[1],8 µg/mL
same,MIC S. epidermidis,[2],8 µg/mL
same,MIC S. dublin,Salmonella dublin (Lane),64 µg/mL
same,MIC P. aeruginosa,[3],32 µg/mL
same,MIC E. coli,[4],16 µg/mL
"CCCCCCCCCCCC(=O)N[C@@H](CCCNC(=N)N)C(=O)N[C@@H](CO)C(=O)N[C@@H](CCCNC(=N)N)C(=O)N[C@@H](Cc1c[nH]c2ccccc12)C(=O)N[C@@H](CCCNC(=N)N)C(=O)N[C@@H](CC(=O)O)C(=O)N[C@H](C(=O)N[C@@H](C)C(=O)N[C@@H](CCCNC(=N)N)C(=O)N[C@@H](CC(N)=O)C(=O)N[C@@H](Cc1ccccc1)C(=O)N[C@@H](CC(C)C)C(N)=O)C(C)C [Peptide 161, Lauryl-RSRWRDVARNFL-NH2] (Lauroyl-RSRWRDVARNFL-NH2)",MIC S. aureus,[1],8 µg/mL
same,MIC S. epidermidis,[2],4 µg/mL
same,MIC S. dublin,Salmonella dublin (Lane),>64 µg/mL
same,MIC P. aeruginosa,[3],>64 µg/mL
same,MIC E. coli,[4],16 µg/mL
